The values that follow come from patent publication US9254283B2, “Therapeutic agent for migraine” (priority 2008, dated 2016).

The test system of the assay is cerebral vascular smooth muscle (basilar arteries). Put plainly: Cerebral vasoconstriction effect: inhibition of adenosine-induced relaxation of isolated basilar artery rings. The following applies: dog basilar artery rings. As for the experimental part:
Dogs were anesthetized by intravenous administration of sodium pentobarbital, exsanguinated by decapitation and subjected to craniotomy. The basilar arteries were removed, and ring specimens of cerebral vascular smooth muscle measuring about 2 mm in width were prepared. Each ring specimen was fixed to an injection needle (cut into a 2-mm piece) with a silk thread. The injection needle was fixed to a holder installed in an Easy Magnus Device (Model: UC-2; Kishimoto Medical Instruments), and the specimen was allowed to stabilize for 60 minutes or more under a resting tension of 0.2 g (1.96 mN) in a 37° C. nutritive solution. […] Separately, in the same manner as in the test compound-administered group, dimethylsulfoxide alone was cumulatively added in place of the test compound (solvent-added group). The contraction of the cerebral vascular smooth muscle was then recorded on a recorder (Yokogawa Electric Corporation) from a transducer (Nihon Kohden Corporation) connected to the holder, to which the specimen was fixed, via a strain pressure amplifier (Nihon Kohden Corporation) (n=6). […] The cerebral vasoconstriction effect was determined as the percentage inhibition (%) of the adenosine-induced cerebral vascular smooth muscle relaxation, and comparison was made between the test compound-added group and the solvent-added group.

Each structure is given as a SMILES string.

`Cc1ccc(C(=O)Nc2nc(-c3ccco3)c(C(=O)C3CCOCC3)s2)cn1` [(IIC)]: the inhibition at 0.01 µM (Canis lupus familiaris, 10 nmol/L, n=6, solvent-added group 0.6±7.6%, read-out: percentage inhibition of the adenosine-induced cerebral vascular smooth muscle relaxation) turned out to be 97.4 ± 1.8%. As for `CC(C)(O)CCN1CCN(c2cc3nc(-c4ccco4)nn3c(N)n2)CC1` [Compound (IB)], the “suppressing effect on adenosine-induced cerebral vascular smooth muscle relaxation (in words)” value (versus solvent-added group) is given as “confirmed”.

A word on the inhibition: it is the share of the control response that was lost under treatment.
